Reference: ChEMBL document CHEMBL1201862, “PubChem BioAssay data set” (2004)
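Compound exposure: 48 hours, 5 concentrations, 96-well plates. At the GI50, growth is halved.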 Activity calls are given as the source filed them. Rule as the data show it: active = GI50 up to about 1.1 µM and inactive = higher.

How the values were obtained:
Experiment in all cases: NCI-60 cell line screen, 48 h
[1] = tested on: LOX IMVI
[2] = tested on: TK-10
[3] = tested on: SF-268
[4] = tested on: ACHN
[5] = tested on: U-251
[6] = tested on: PC-3
[7] = tested on: K562
[8] = tested on: SK-MEL-5
[9] = tested on: A549
[10] = tested on: SN12C
[11] = tested on: OVCAR-4
[12] = tested on: MDA-N
[13] = tested on: SK-MEL-28
[14] = tested on: SF-539
[15] = tested on: SNB-19
[16] = tested on: RPMI-8226
[17] = tested on: T47D
[18] = tested on: RXF 393
[19] = tested on: A498

Measured: GI50

Cc1cc(S(=O)(=O)/N=C2\NCCN2Cc2ccccc2)c(S)cc1Cl
inactive: [1] > 100 µM | [2] > 100 µM | [3] 88.3 µM | [4] > 100 µM | [5] > 100 µM | [6] > 100 µM | [7] > 100 µM | [8] > 100 µM | [9] > 100 µM | [10] > 100 µM | [11] > 100 µM | [12] > 100 µM | [13] > 100 µM | [14] > 100 µM | [15] > 100 µM | [16] 10.5 µM

[N-]=[N+]=Nc1c(Cc2ccccc2)c(=O)oc2ccccc12
inactive: [1] 14.2 µM | [2] 28.2 µM | [3] 25.9 µM | [4] 38.2 µM | [17] 56.8 µM | [5] 24.4 µM | [6] 22.9 µM | [7] 18.6 µM | [8] 2.67 µM | [9] 32.5 µM | [10] > 10 µM | [11] 32.4 µM | [13] > 10 µM | [18] 16.7 µM | [14] > 10 µM | [15] 27.2 µM | [16] 33.2 µM

CCCCCCOP(=O)(OCCCCCC)OC(C(=O)OC)C(F)(F)F (stereo not given)
inactive: [1] > 100 µM | [2] > 100 µM | [3] > 100 µM | [4] > 100 µM | [17] > 100 µM | [5] > 100 µM | [6] > 100 µM | [7] > 100 µM | [8] > 100 µM | [9] > 100 µM | [10] > 100 µM | [11] > 100 µM | [12] > 100 µM | [13] > 100 µM | [14] > 100 µM | [15] > 100 µM | [16] > 100 µM

COc1ccc(C(=O)/C=C/c2ccc(OCCCOc3ccc(/C=C/C(=O)c4ccc(OC)c(OC)c4)cc3)cc2)cc1OC
inactive: [2] > 100 µM | [3] > 100 µM | [4] > 100 µM | [17] > 100 µM | [5] > 100 µM | [6] > 100 µM | [7] > 100 µM | [8] > 100 µM | [9] > 100 µM | [10] > 100 µM | [11] > 100 µM | [12] > 100 µM | [13] > 100 µM | [18] > 100 µM | [14] > 100 µM | [15] > 100 µM | [16] > 100 µM

COCc1nc(N)nc(N2N=C(C)CC2(C)C)n1
inactive: [1] > 100 µM | [2] > 100 µM | [3] > 100 µM | [19] > 100 µM | [4] > 100 µM | [17] > 100 µM | [5] > 100 µM | [6] > 100 µM | [7] > 100 µM | [8] > 100 µM | [9] > 100 µM | [10] > 100 µM | [11] > 100 µM | [13] > 100 µM | [18] > 100 µM | [14] > 100 µM | [15] > 100 µM | [16] > 100 µM

CN(C)C1(N(C)C)Oc2c(c(=O)n(C)c(=O)n2C)C(c2ccccc2)C1(F)F (stereo not given)
inactive: [1] > 100 µM | [2] > 100 µM | [3] > 100 µM | [19] > 100 µM | [4] > 100 µM | [17] > 100 µM | [5] > 100 µM | [6] > 100 µM | [7] > 100 µM | [8] > 100 µM | [9] > 100 µM | [11] > 100 µM | [13] > 100 µM | [18] > 100 µM | [15] > 100 µM | [16] > 100 µM

COC1CC(NC(=O)C(F)(F)F)C(OC(C)=O)C(C)O1 (stereo not given)
inactive: [1] > 100 µM | [2] > 100 µM | [3] > 100 µM | [4] > 100 µM | [17] > 100 µM | [5] > 100 µM | [6] > 100 µM | [7] > 100 µM | [8] > 100 µM | [9] > 100 µM | [10] > 100 µM | [11] > 100 µM | [12] > 100 µM | [13] > 100 µM | [18] > 100 µM | [14] > 100 µM | [15] > 100 µM | [16] > 100 µM

CCOC(=O)C(C)(Cc1ccc(O)cn1)NC(=O)c1ccccc1 (stereo not given)
inactive: [1] > 100 µM | [2] > 100 µM | [3] > 100 µM | [4] > 100 µM | [5] > 100 µM | [6] > 100 µM | [7] > 100 µM | [8] > 100 µM | [9] > 100 µM | [11] > 100 µM | [12] > 100 µM | [13] > 100 µM | [18] > 100 µM | [14] > 100 µM | [15] > 100 µM | [16] > 100 µM
